Assays:
E. coli [1] = test: E. coli adherence to gastro-intestinal mucosa; settings: inventors' determination
E. coli [2] = settings: cited from earlier work; for tissue injury and inflammatory cell infiltration: rabbit ileal loop model, U.S. Pat. No. 6,132,710
E. coli [3] = test: Caco-2 cell transwell system, E. coli translocation (transcytosis); assay type: cell-based; settings: inventors' determination
Method: Caco-2 cells derived from human adenocarcinoma cells which show all the morphological and functional characteristics of mature small intestinal epithelial cells after differentiation were employed in a number of experimental systems. Panigrahi et al., Development of an in vitro model for study of non-01 Vibrio cholerae virulence using Caco-2 cells, Infect. Immun., 58:3415-3424 (1990). Caco-2 cells were grown in DMEM supplemented with 1% nonessential amino acids, 1% sodium pyruvate, 10% fetal calf serum, 100 U penicillin and 100 μg of streptomycin/mL in a 5% CO2 atmosphere at 37° C. For transcytosis studies, 0.2×10^6 cells in 0.3 mL medium were seeded on the apical side of 0.6 cm^2 polycarbonate transwell filters/clusters (Costar, Cambridge, Mass.). […]
A Caco-2 cell transwell system was used in accordance with Panigrahi et al. (1990) and Panigrahi et al. (1994) to grow cells on a membrane allowing the measurement of bacteria that translocate. Briefly, Caco-2 cells were grown on polycarbonate filters in transwell cluster and TEER (trans-epithelial electrical resistance) was measured before and after treatment (1) with E. coli alone, (2) in a system deprived of glutamine, (3) in a system deprived of glutamine and later replenished with glutamine, and (4) in a system deprived of glutamine and treated with a Lactobacillus strain ATCC 202195 and glutamine composition. […]

E. coli [4] = settings: cited from earlier work; for adherence and translocation of Gram (−) organisms such as E. coli: Caco-2 cell culture model, U.S. Pat. No. 6,132,710

| Molecule | effect on E. coli adherence to gastro-intestinal mucosa (E. coli [1]) | protection against Gram (−) bacteria-induced necrotizing enterocolitis (E. coli [2]; instillation of rabbit ileal loops with glutamine, U.S. Pat. No. 5,981,590) | effect on translocation of E. coli across mucosal layers (E. coli [3]) | bacterial translocation (E. coli [4]; glutamine supplied from the luminal (apical) side, U.S. Pat. No. 5,981,590) | tissue injury and inflammatory cell infiltration (E. coli [2]) | adherence and translocation of Gram (−) organisms such as E. coli (E. coli [4]) |
| --- | --- | --- | --- | --- | --- | --- |
| NC(=O)CC[C@H](N)C(=O)O [glutamine] | does not have an effect | protects | prevents translocation | reduce bacterial translocation | – | – |
| Lactobacillus | prevents initial steps | – | – | – | – | – |
| Lactobacillus acidophilus | – | – | – | – | reduced | capable of blocking |
| Lactobacillus plantarum | – | – | – | – | reduced | capable of blocking |

Source: US20040096427A1, “Oral gram(+) bacteria and glutamine composition for prevention and/or treatment of gastro-intestinal dysfunctions including inflammation in the gastro-intestinal tract, neonatal necrotizing enterocolitis (nec) and bacterial sepsis” (priority 2003, published 2004)
